ChEMBL document CHEMBL5053502, “Too Hot to Handle: Antibacterial Peptides Identified in Ghost Pepper” (J Nat Prod, 2021)
≈ marks a conversion by molar mass, not a printed value. Calls of active or inactive are those of the source. No cut-off for these calls is given here. Where a SMILES comes first, the peptide text is derived from it. Bridges are numbered along the chain shown (N, C = ends). [ ]: non-standard residue; d: D form. pGlu = O=C1CC[C@@H](C(=O)O)N1

Assays:
Acinetobacter baumannii [1] = test: Bactericidal activity against Acinetobacter baumannii 5075 assessed as reduction in cell viability incubated for 24 hrs; type: functional
Klebsiella pneumoniae = test: Antibacterial activity against Klebsiella pneumoniae VK148 assessed as bacterial growth inhibition incubated for 4 hrs followed by resazurin addition and measured after 1 hr by fluorescence based analysis
Acinetobacter baumannii [2] = test: Antibacterial activity against Acinetobacter baumannii 5075 assessed as bacterial growth inhibition incubated for 5 hrs by absorbance based analysis; type: functional, organism-based; details: Acinetobacter baumannii, 5075, 5 h
Pseudomonas aeruginosa = test: Antibacterial activity against Pseudomonas aeruginosa 1423 assessed as bacterial growth inhibition incubated for 7 hrs by absorbance based analysis; details: Pseudomonas aeruginosa, 1423, 7 h
Cell membrane [3] = test: Induction of inner membrane permeabilization in Escherichia coli ATCC 25922 assessed as increase in absorbance at 420 nm in presence of ONPG by absorbance based assay; type: subcellular
Escherichia coli = test: Antibacterial activity against Escherichia coli ATCC 25922 assessed as bacterial growth inhibition incubated for 4 hrs followed by resazurin addition and measured after 1 hr by fluorescence based analysis; type: functional, organism-based
Cell membrane [4] = test: Induction of outer membrane permeabilization in Escherichia coli ATCC 25922 assessed as increase in NPN uptake at 10 to 40 uM by NPN-dye based fluorescence analysis; type: subcellular; details: dose 10-40 µM
[5] = Hemolytic activity in human RBC assessed as hemolysis at 2.5 to 40 uM incubated for 1 hr by absorbance based analysis; type: ADME, tissue-based; details: erythrocyte, dose 2.5-40 µM

Structure (SMILES)	MBC (Acinetobacter baumannii [1])	IC50 (Klebsiella pneumoniae)	IC50 (Acinetobacter baumannii [2])	IC50 (Pseudomonas aeruginosa)	Activity (Cell membrane [3])	IC50 (Escherichia coli)	Activity (Cell membrane [4])	Activity [5]
CC[C@H](C)[C@@H]1NC(=O)[C@@H]2CSSC[C@H](NC(=O)[C@H](CCCCN)NC(=O)[C@H](C)NC(=O)[C@H](CCSC)NC(=O)[C@@H](NC(=O)[C@@H](NC(=O)[C@@H]3CCCN3C(=O)[C@H](CC(=O)O)NC(=O)[C@H](CC(C)C)NC(=O)[C@@H](NC(=O)[C@H](CCC(=O)O)NC(=O)[C@@H]3CCC(=O)N3)[C@@H](C)O)[C@@H](C)CC)CSSC[C@@H](C(=O)N[C@H](C(=O)N[C@@H](CC(C)C)C(=O)O)C(C)C)NC(=O)CNC(=O)[C@H](C)NC1=O)C(=O)N[C@@H](C(C)C)C(=O)N[C@@H](CC(C)C)C(=O)N[C@@H](CCCCN)C(=O)N[C@H]1CSSC[C@H](NC(=O)[C@H](Cc3c[nH]c4ccccc34)NC(=O)[C@H](C)NC(=O)[C@H](CCCCN)NC(=O)[C@H](CCCCN)NC(=O)CNC1=O)C(=O)N[C@@H](CC(C)C)C(=O)N[C@@H]([C@@H](C)O)C(=O)N[C@@H](CCCCN)C(=O)N2 ([pGlu]ETLDPICMAKCVLKCGKKAWCLTKCIAGCVL-OH; disulfide 8-30, 12-26, 16-22)	8.6 µM (≈ 29.7 µg/mL)	13.2 µM	4 µM	6.9 µM	Active	14.5 µM	100%	Non-Toxic
CC[C@H](C)[C@H](NC(=O)[C@H](CCCCN)NC(=O)CNC(=O)[C@H](CC(C)C)NC(=O)CNC(=O)[C@H](CCCCN)NC(=O)[C@@H](NC(=O)[C@H](CC(C)C)NC(=O)[C@H](Cc1cnc[nH]1)NC(=O)[C@H](CCCNC(=N)N)NC(=O)CNC(=O)[C@@H](NC(=O)[C@@H](N)CCCCN)C(C)C)C(C)C)C(=O)N[C@@H](Cc1ccccc1)C(=O)N[C@@H](CCCNC(=N)N)C(=O)N[C@@H](C)C(=O)NCC(=O)N[C@H](CCCCN)C(=O)N[C@@H](C(=O)N[C@H](C(=O)N[C@@H](Cc1ccccc1)C(=O)N[C@H]1CSSC[C@@H](C(=O)N[C@@H](CCCCN)C(=O)N[C@H](C(=O)N[C@H]2CSSC[C@@H](C(=O)N[C@@H](C)C(=O)O)NC(=O)[C@@H]3CSSC[C@H](NC(=O)[C@H](CC(C)C)NC(=O)CNC(=O)[C@H](CC(N)=O)NC2=O)C(=O)N[C@@H](CC(=O)O)C(=O)N[C@@H](Cc2ccc(O)cc2)C(=O)N3)[C@@H](C)O)NC(=O)[C@H]([C@@H](C)O)NC(=O)[C@H](CC(N)=O)NC1=O)[C@@H](C)CC)C(C)C	–	–	–	–	–	7.6 µM	–	–
